Experiments:
[1] = Selectivity ratio of cytotoxicity to human KB cells to antimalarial activity against Plasmodium falciparum; type: cell-based
Plasmodium berghei = assay: Antimalarial activity against Plasmodium berghei infected mice (Mus musculus); type: functional

Row | SMILES | selectivity ratio [1] | ED50 (Plasmodium berghei)
1 | CC[C@](C)(O)C(=O)O[C@H]1C(=O)O[C@@H]2C[C@H]3C(C)=CC(=O)[C@@H](O)[C@]3(C)[C@H]3[C@@]4(O)OC[C@]32[C@@H]1[C@@H](C)[C@H]4O [GLAUCARUBINONE] | 285 | –
2 | CC1(C)[C@@H](n2cnc3ccccc3c2=O)C(=O)C[C@@H]2[C@@H](O)CCCN21 | – | 6 µmol/kg
3 | CC1(C)[C@H](n2cnc3ccccc3c2=O)CC[C@H]2[C@@H](O)CCCN21 | – | 145 µmol/kg

— ChEMBL document CHEMBL1152694, “Synthetic medicinal chemistry of selected antimalarial natural products” (Bioorg Med Chem, 2009)
